In PMC8794153, “Access to highly specialized growth substrates and production of epithelial immunomodulatory metabolites determine survival of Haemophilus influenzae in human airway epithelial cells” (PLoS Pathogens, 2022):

What was measured:
LdhA = tested on: T1, LdhA; assay: NADH oxidation at […] nm, cell-free extract; assay type: cell-based, Haemophilus influenzae; conditions: Tris-Cl pH 7.5, 37 °C
T1 construct: native soluble enzyme in cell-free extract of Hi2019; not purified; no tag

[1] = tested on: LldD L-lactate dehydrogenase; conditions: read-out: KM_app; DCPIP 0.1 mM electron acceptor, PMS 0.25 mM, MgCl2 2 mM, phosphate pH 7.4, 37 °C

**Q.** For `NC(=O)C1=CN([C@@H]2O[C@H](COP(=O)(O)OP(=O)(O)OC[C@H]3O[C@@H](n4cnc5c(N)ncnc54)[C@H](O)[C@@H]3O)[C@@H](O)[C@H]2O)C=CC1` [NADH], which Km (LdhA; pyruvate co-substrate (std. 10 mM)) is on record?
**A.** 55 ± 3 µM

**Q.** With `C[C@H](O)C(=O)O` [L-lactate] as the compound, how does the Km [1] read?
**A.** 300 ± 30 µM

**Q.** With `CC(=O)C(=O)O` [pyruvate] as the compound, how does the Km (LdhA; NADH co-substrate) read?
**A.** 3380 ± 840 µM
